Experiments:
[1] = biological target: T1, AtDHBPS (Arabidopsis thaliana, UniProt P47924); assay: Thermal stability shift analysis; type: binding; conditions: 6.5 μM AtDHBPS
T1 construct: made in house; host or cells: Escherichia coli BL21(DE3)
T1 sequence (P47924 with tags, fused parts or gaps): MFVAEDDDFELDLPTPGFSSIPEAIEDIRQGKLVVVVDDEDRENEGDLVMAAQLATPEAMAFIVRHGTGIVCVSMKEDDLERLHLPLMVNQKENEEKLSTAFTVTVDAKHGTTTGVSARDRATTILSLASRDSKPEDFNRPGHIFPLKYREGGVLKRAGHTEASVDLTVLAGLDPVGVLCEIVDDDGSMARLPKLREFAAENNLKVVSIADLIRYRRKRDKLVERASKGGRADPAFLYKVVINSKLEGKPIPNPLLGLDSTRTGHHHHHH
Procedure: AtDHBPS melting curves were determined in 96‐well microtiter plates in a Roche Light Cycler 480. The assay mixture contained 50 mM HEPES pH 7.5, 75 mM NaCl, 2.5 mM MgCl2, 7.5x SYPRO Orange and 6.5 μM AtDHBPS in a total volume of 20 μL. A linear temperature gradient from 25 to 85 °C with a ramping of 3.25 °C min^−1 was applied. Melting temperatures were determined from plots of the first derivative of the fluorescence intensity versus temperature.

[2] = tested on: Veronica persica (VERPE); assay: Herbicidal greenhouse screening, post-emergence; type: in vivo; conditions: visual, 3 weeks after spraying
Procedure: (§1) Seeds of mono‐ and dicotyledonous weed plants were sown in plastic pots of 7 cm diameter filled with a clayey silt soil substrate. The plants were maintained for the preparatory phase of germination and initial growth in the greenhouse under optimum growth conditions. Phosphonothrixin (1) was prepared for application as an emulsion concentrate and diluted together with 0.2% agrotin (a polyfunctional non‐ionic additive) in water corresponding to a spray volume of approximately 600 L ha^−1. At a growth stage of 2 to 4 true leaves the test plants were sprayed and then placed in the greenhouse for 3 weeks under optimum growth conditions. Subsequently, the effect of phosphonothrixin (1) was assessed visually relative to the untreated controls resulting in herbicidal effects (%) ranging from 0% (no effect = untreated control) to 100% (complete control = died‐off ).

[3] = tested on: Cyperus esculentus (CYPES); assay: Herbicidal greenhouse screening, post-emergence; type: in vivo; conditions: visual, 3 weeks after spraying
Procedure: as §1

[4] = tested on: Stellaria media (STEME); assay: Herbicidal greenhouse screening, post-emergence; type: in vivo; conditions: visual, 3 weeks after spraying
Procedure: as §1

[5] = tested on: Amaranthus retroflexus (AMARE); assay: Herbicidal greenhouse screening, post-emergence; type: in vivo; conditions: visual, 3 weeks after spraying
Procedure: as §1

[6] = tested on: Viola tricolor (VIOTR); assay: Herbicidal greenhouse screening, post-emergence; type: in vivo; conditions: visual, 3 weeks after spraying
Procedure: as §1

[7] = tested on: Triticum aestivum (spring wheat, TRZAS); assay: Herbicidal greenhouse screening, post-emergence; type: in vivo; conditions: visual, 3 weeks after spraying
Procedure: as §1

[8] = tested on: Zea mays (ZEAMX); assay: Herbicidal greenhouse screening, post-emergence; type: in vivo; conditions: visual, 3 weeks after spraying
Procedure: as §1

[9] = tested on: Pharbitis purpurea (PHBPU); assay: Herbicidal greenhouse screening, post-emergence; type: in vivo; conditions: visual, 3 weeks after spraying
Procedure: as §1

[10] = tested on: Brassica napus (winter rape, BRSNW); assay: Herbicidal greenhouse screening, post-emergence; type: in vivo; conditions: visual, 3 weeks after spraying
Procedure: as §1

[11] = tested on: Alopecurus myosuroides (ALOMY); assay: Herbicidal greenhouse screening, post-emergence; type: in vivo; conditions: visual, 3 weeks after spraying
Procedure: as §1

[12] = tested on: Oryza sativa (ORYSA); assay: Herbicidal greenhouse screening, post-emergence; type: in vivo; conditions: visual, 3 weeks after spraying
Procedure: as §1

[13] = tested on: Polygonum convolvulus (POLCO); assay: Herbicidal greenhouse screening, post-emergence; type: in vivo; conditions: visual, 3 weeks after spraying
Procedure: as §1

[14] = tested on: Lolium multiflorum (LOLMU); assay: Herbicidal greenhouse screening, post-emergence; type: in vivo; conditions: visual, 3 weeks after spraying
Procedure: as §1

[15] = tested on: Matricaria inodora (MATIN); assay: Herbicidal greenhouse screening, post-emergence; type: in vivo; conditions: visual, 3 weeks after spraying
Procedure: as §1

[16] = tested on: Avena fatua (AVEFA); assay: Herbicidal greenhouse screening, post-emergence; type: in vivo; conditions: visual, 3 weeks after spraying
Procedure: as §1

[17] = tested on: Abutilon theophrasti (ABUTH); assay: Herbicidal greenhouse screening, post-emergence; type: in vivo; conditions: visual, 3 weeks after spraying
Procedure: as §1

[18] = tested on: Setaria viridis (SETVI); assay: Herbicidal greenhouse screening, post-emergence; type: in vivo; conditions: visual, 3 weeks after spraying
Procedure: as §1

[19] = tested on: Echinochloa crus‐galli (ECHCG); assay: Herbicidal greenhouse screening, post-emergence; type: in vivo; conditions: visual, 3 weeks after spraying
Procedure: as §1

[20] = tested on: gramineous and broadleaf weeds; set-up: method as in PMID 7490218, PMID 7490219; conditions: cited from earlier work

SMILES: CC(=O)C(O)(CO)CP(=O)(O)O (centres unmarked) [phosphonothrixin]
- ΔTm at 10 µM ([1]; compound 10 μM, read-out: shift of the melting point (deltaTm) of AtDHBPS): 4 °C
- deltaTm(max) ([1]; from plot of deltaTm vs. concentration): 22.7 ± 0.6 °C
- Kd ([1]; from plot of deltaTm vs. concentration, read-out: Kd-value for binding to AtDHBPS): 31.1 ± 2.8 µM
- herbicidal effect rating, post-emergence ([2]; 80 g/ha): 3 (‘3’ = 60–79% inhibition)
- herbicidal effect rating, post-emergence ([2]; 320 g/ha): 3 (‘3’ = 60–79% inhibition)
- herbicidal effect rating, post-emergence ([2]; 1280 g/ha): 4 (‘4’ = 80–90% inhibition)
- herbicidal effect rating, post-emergence ([2]; 5120 g/ha): 4 (‘4’ = 80–90% inhibition)
- herbicidal effect rating, post-emergence ([3]; 320 g/ha): 2 (‘2’ = 40–59% inhibition)
- herbicidal effect rating, post-emergence ([3]; 1280 g/ha): 3 (‘3’ = 60–79% inhibition)
- herbicidal effect rating, post-emergence ([3]; 5120 g/ha): 4 (‘4’ = 80–90% inhibition)
- herbicidal effect rating, post-emergence ([4]; 80 g/ha): 3 (‘3’ = 60–79% inhibition)
- herbicidal effect rating, post-emergence ([4]; 320 g/ha): 3 (‘3’ = 60–79% inhibition)
- herbicidal effect rating, post-emergence ([4]; 1280 g/ha): 3 (‘3’ = 60–79% inhibition)
- herbicidal effect rating, post-emergence ([4]; 5120 g/ha): 4 (‘4’ = 80–90% inhibition)
- herbicidal effect rating, post-emergence ([5]; 80 g/ha): 2 (‘2’ = 40–59% inhibition)
- herbicidal effect rating, post-emergence ([5]; 320 g/ha): 3 (‘3’ = 60–79% inhibition)
- herbicidal effect rating, post-emergence ([5]; 1280 g/ha): 4 (‘4’ = 80–90% inhibition)
- herbicidal effect rating, post-emergence ([5]; 5120 g/ha): 4 (‘4’ = 80–90% inhibition)
- herbicidal effect rating, post-emergence ([6]; 80 g/ha): 1 (‘1’ = 20–39% inhibition)
- herbicidal effect rating, post-emergence ([6]; 320 g/ha): 3 (‘3’ = 60–79% inhibition)
- herbicidal effect rating, post-emergence ([6]; 1280 g/ha): 4 (‘4’ = 80–90% inhibition)
- herbicidal effect rating, post-emergence ([6]; 5120 g/ha): 4 (‘4’ = 80–90% inhibition)
- herbicidal effect rating, post-emergence ([7]; 320 g/ha): 1 (‘1’ = 20–39% inhibition)
- herbicidal effect rating, post-emergence ([7]; 1280 g/ha): 4 (‘4’ = 80–90% inhibition)
- herbicidal effect rating, post-emergence ([7]; 5120 g/ha): 4 (‘4’ = 80–90% inhibition)
- herbicidal effect rating, post-emergence ([8]; 320 g/ha): 2 (‘2’ = 40–59% inhibition)
- herbicidal effect rating, post-emergence ([8]; 1280 g/ha): 3 (‘3’ = 60–79% inhibition)
- herbicidal effect rating, post-emergence ([8]; 5120 g/ha): 4 (‘4’ = 80–90% inhibition)
- herbicidal effect rating, post-emergence ([9]; 80 g/ha): 4 (‘4’ = 80–90% inhibition)
- herbicidal effect rating, post-emergence ([9]; 320 g/ha): 4 (‘4’ = 80–90% inhibition)
- herbicidal effect rating, post-emergence ([9]; 1280 g/ha): 4 (‘4’ = 80–90% inhibition)
- herbicidal effect rating, post-emergence ([9]; 5120 g/ha): 4 (‘4’ = 80–90% inhibition)
- herbicidal effect rating, post-emergence ([10]; 80 g/ha): 2 (‘2’ = 40–59% inhibition)
- herbicidal effect rating, post-emergence ([10]; 320 g/ha): 3 (‘3’ = 60–79% inhibition)
- herbicidal effect rating, post-emergence ([10]; 1280 g/ha): 4 (‘4’ = 80–90% inhibition)
- herbicidal effect rating, post-emergence ([10]; 5120 g/ha): 4 (‘4’ = 80–90% inhibition)
- herbicidal effect rating, post-emergence ([11]; 320 g/ha): 1 (‘1’ = 20–39% inhibition)
- herbicidal effect rating, post-emergence ([11]; 1280 g/ha): 3 (‘3’ = 60–79% inhibition)
- herbicidal effect rating, post-emergence ([11]; 5120 g/ha): 4 (‘4’ = 80–90% inhibition)
- herbicidal effect rating, post-emergence ([12]; 1280 g/ha): 1 (‘1’ = 20–39% inhibition)
- herbicidal effect rating, post-emergence ([12]; 5120 g/ha): 2 (‘2’ = 40–59% inhibition)
- herbicidal effect rating, post-emergence ([13]; 80 g/ha): 1 (‘1’ = 20–39% inhibition)
- herbicidal effect rating, post-emergence ([13]; 320 g/ha): 1 (‘1’ = 20–39% inhibition)
- herbicidal effect rating, post-emergence ([13]; 1280 g/ha): 1 (‘1’ = 20–39% inhibition)
- herbicidal effect rating, post-emergence ([13]; 5120 g/ha): 2 (‘2’ = 40–59% inhibition)
- herbicidal effect rating, post-emergence ([14]; 80 g/ha): 1 (‘1’ = 20–39% inhibition)
- herbicidal effect rating, post-emergence ([14]; 320 g/ha): 3 (‘3’ = 60–79% inhibition)
- herbicidal effect rating, post-emergence ([14]; 1280 g/ha): 4 (‘4’ = 80–90% inhibition)
- herbicidal effect rating, post-emergence ([14]; 5120 g/ha): 4 (‘4’ = 80–90% inhibition)
- herbicidal effect rating, post-emergence ([15]; 80 g/ha): 2 (‘2’ = 40–59% inhibition)
- herbicidal effect rating, post-emergence ([15]; 320 g/ha): 3 (‘3’ = 60–79% inhibition)
- herbicidal effect rating, post-emergence ([15]; 1280 g/ha): 4 (‘4’ = 80–90% inhibition)
- herbicidal effect rating, post-emergence ([15]; 5120 g/ha): 4 (‘4’ = 80–90% inhibition)
- herbicidal effect rating, post-emergence ([16]; 80 g/ha): 2 (‘2’ = 40–59% inhibition)
- herbicidal effect rating, post-emergence ([16]; 320 g/ha): 3 (‘3’ = 60–79% inhibition)
- herbicidal effect rating, post-emergence ([16]; 1280 g/ha): 4 (‘4’ = 80–90% inhibition)
- herbicidal effect rating, post-emergence ([16]; 5120 g/ha): 4 (‘4’ = 80–90% inhibition)
- herbicidal effect rating, post-emergence ([17]; 80 g/ha): 2 (‘2’ = 40–59% inhibition)
- herbicidal effect rating, post-emergence ([17]; 320 g/ha): 3 (‘3’ = 60–79% inhibition)
- herbicidal effect rating, post-emergence ([17]; 1280 g/ha): 4 (‘4’ = 80–90% inhibition)
- herbicidal effect rating, post-emergence ([17]; 5120 g/ha): 4 (‘4’ = 80–90% inhibition)
- herbicidal effect rating, post-emergence ([18]; 80 g/ha): 4 (‘4’ = 80–90% inhibition)
- herbicidal effect rating, post-emergence ([18]; 320 g/ha): 4 (‘4’ = 80–90% inhibition)
- herbicidal effect rating, post-emergence ([18]; 1280 g/ha): 4 (‘4’ = 80–90% inhibition)
- herbicidal effect rating, post-emergence ([18]; 5120 g/ha): 4 (‘4’ = 80–90% inhibition)
- herbicidal effect rating, post-emergence ([19]; 80 g/ha): 1 (‘1’ = 20–39% inhibition)
- herbicidal effect rating, post-emergence ([19]; 320 g/ha): 2 (‘2’ = 40–59% inhibition)
- herbicidal effect rating, post-emergence ([19]; 1280 g/ha): 4 (‘4’ = 80–90% inhibition)
- herbicidal effect rating, post-emergence ([19]; 5120 g/ha): 4 (‘4’ = 80–90% inhibition)
- effect after foliar application [20]: chlorosis
- effect on germination ([20]; gramineous and broadleaf weeds): significantly inhibited germination
